Six compounds from ChEMBL document CHEMBL5625187, “A facile and selective derivatization approach on kynurenine-NH2 in daptomycin, leading to the discovery of hexakynomycin to combat multidrug-resistant Gram-positive pathogens especially daptomycin-resistant bacteria” (Eur J Med Chem, 2023) can be followed below.

In brackets after ≈: the same amount, converted by molar mass. Activity calls are given as the source filed them. No cut-off for these calls is given here. Bounds are passed on as bounds.

Data set [1] relates to Enterococcus faecalis. In words: Antibacterial activity against Enterococcus faecalis EFA 20-1 assessed as reduction in microbial growth incubated for 24 hrs by broth microdilution method. It counts as functional.
Data set [2] concerns Staphylococcus aureus. Kind of data set: Antibacterial activity against vancomycin-intermediate resistant Staphylococcus aureus Mu 50 assessed as reduction in microbial growth incubated for 24 hrs by broth microdilution method. It counts as functional.
For data set [3], the system named is Staphylococcus aureus. Kind of data set: Antibacterial activity against vancomycin-intermediate resistant Staphylococcus aureus ATCC 700699 assessed as reduction in microbial growth incubated for 24 hrs by broth microdilution method. It counts as functional. (In broth dilution the organism is exposed to a series of concentrations in liquid medium.)
The subject of data set [4] is Enterococcus faecium. In words: Antibacterial activity against glycopeptide-resistant Enterococcus faecium Efm-HS-0649 assessed as reduction in microbial growth incubated for 24 hrs by broth microdilution method. It counts as functional.
Data set [5] has as its system Enterococcus faecalis. In words: Antibacterial activity against vancomycin-resistant Enterococcus faecalis VREfa 20-1 assessed as reduction in microbial growth incubated for 24 hrs by broth microdilution method. It counts as functional.
In data set [6] the test system is Staphylococcus aureus. Kind of data set: Antibacterial activity against methicillin-susceptible Staphylococcus aureus ATCC 29213 assessed as reduction in microbial growth incubated for 24 hrs by broth microdilution method. It counts as functional.
Data set [7] relates to Staphylococcus aureus. Kind of data set: Antibacterial activity against Staphylococcus aureus assessed as reduction in bacterial growth incubated for 16 to 24 hrs in presence of MHB medium by serial dilution method. In kind it is functional. To be noted: time 16-24 hrs.
For data set [8], the system named is Staphylococcus aureus. Kind of data set: Induction of membrane disruption in Staphylococcus aureus at 4 to 16 ug/ml incubated for 4 hrs by propidium iodide staining based flow cytometric analysis. In kind it is functional, organism-based. To be noted: dose 4-16 µg/ml.
Data set [9] deals with Staphylococcus aureus. Kind of data set: Ratio of MIC for antibacterial activity against Staphylococcus aureus in presence of PG to MIC for antibacterial activity against Staphylococcus aureus. It counts as functional.
Data set [10] concerns Enterococcus faecalis. Kind of data set: Antibacterial activity against Enterococcus faecalis ATCC 29212 assessed as reduction in microbial growth incubated for 24 hrs by broth microdilution method. It counts as functional.
The test system of data set [11] is Staphylococcus aureus. In words: Antibacterial activity against Staphylococcus aureus assessed as reduction in bacterial growth incubated for 16 to 24 hrs in presence of PG by serial dilution method. In kind it is functional. The note with it: time 16-24 hrs.
Data set [12] has as its system Staphylococcus aureus. Kind of data set: Antibacterial activity against methicillin-resistant Staphylococcus aureus clinical isolate 20-2 assessed as reduction in microbial growth incubated for 24 hrs by broth microdilution method. In kind it is functional.
Data set [13] has as its system Staphylococcus aureus. Kind of data set: Antibacterial activity against Staphylococcus aureus assessed as reduction in bacterial growth incubated for 16 to 24 hrs in presence of CAMHB medium by serial dilution method. In kind it is functional. The note with it: time 16-24 hrs.
In data set [14] the test system is Staphylococcus aureus. In words: Antibacterial activity against Staphylococcus aureus assessed as reduction in bacterial growth incubated for 16 to 24 hrs by serial dilution method. In kind it is functional. The note with it: time 16-24 hrs.
Data set [15] can be described thus: Observed volume of distribution at steady state in CD-1 mouse at 1 mg/kg, iv measured up to 24 hrs by UPLC-MS analysis. In kind it is ADME, organism-based. To be noted: in vivo, read-out: Vdss.
In data set [16] the test system is Staphylococcus aureus. Kind of data set: Ratio of MIC for antibacterial activity against Staphylococcus aureus in presence of MHB medium to MIC for antibacterial activity against Staphylococcus aureus CAMHB medium. It counts as functional.
Data set [17] relates to Staphylococcus aureus. Kind of data set: Antibacterial activity against methicillin-susceptible Staphylococcus aureus clinical isolate 20-1 assessed as reduction in microbial growth incubated for 24 hrs by broth microdilution method. In kind it is functional.
In data set [18] the test system is Staphylococcus aureus. In words: Antibacterial activity against methicillin-resistant Staphylococcus aureus clinical isolate 20-3 infected in iv dosed Kunming mouse model assessed as increase in survival measured after 14 days. In kind it is functional. The note with it: Clinical isolate 20-3, 336 h, time 14 day.
The next data set has as its system Erythrocyte. In words: Hemolytic activity in rat RBC at 400 ug/ml incubated for 1 hr. It counts as toxicity, cell-based. To be noted: dose 400 µg/ml.
The subject of data set [19] is Staphylococcus aureus. Kind of data set: Antibacterial activity against methicillin-resistant Staphylococcus aureus clinical isolate 20-3 assessed as reduction in microbial growth incubated for 24 hrs by broth microdilution method. In kind it is functional.
Data set [20] concerns Enterococcus faecium. Kind of data set: Antibacterial activity against Enterococcus faecium EFM 20-1 assessed as reduction in microbial growth incubated for 24 hrs by broth microdilution method. In kind it is functional.
For data set [21], the system named is Staphylococcus aureus. In words: Antibacterial activity against methicillin-resistant Staphylococcus aureus USA300 assessed as reduction in microbial growth incubated for 24 hrs by broth microdilution method. It counts as functional.
The subject of data set [22] is Staphylococcus aureus. Kind of data set: Induction of drug resistance against Staphylococcus aureus Newman ATCC 25904 assessed as fold increase in MIC after 15 days by broth microdilution method. It counts as functional. The note with it: time 15.0 day.
In data set [23] the test system is Staphylococcus aureus. In words: Antibacterial activity against methicillin-resistant Staphylococcus aureus clinical isolate 20-1 assessed as reduction in microbial growth incubated for 24 hrs by broth microdilution method. In kind it is functional.
The test system of data set [24] is Staphylococcus aureus. In words: Antibacterial activity against methicillin-susceptible Staphylococcus aureus Newman ATCC 25904 assessed as reduction in microbial growth incubated for 24 hrs by broth microdilution method. In kind it is functional.
Data set [25] concerns Enterococcus faecium. In words: Potency index, ratio of daptomycin MIC to test compound MIC for antibacterial activity against glycopeptide-resistant Enterococcus faecium Efm-HS-0649. It counts as functional.
Data set [26] relates to Staphylococcus aureus. Kind of data set: Potency index, ratio of daptomycin MIC to test compound MIC for antibacterial activity against methicillin-susceptible Staphylococcus aureus Newman ATCC 25904. It counts as functional.

The term MIC denotes the lowest concentration that inhibits growth of the organism. With `CN[C@H](CC(C)C)C(=O)N[C@H]1C(=O)N[C@@H](CC(N)=O)C(=O)N[C@H]2C(=O)N[C@H]3C(=O)N[C@H](C(=O)N[C@H](C(=O)O)c4cc(O)cc(O)c4-c4cc3ccc4O)[C@H](O)c3ccc(c(Cl)c3)Oc3cc2cc(c3O[C@@H]2O[C@H](CO)[C@@H](O)[C@H](O)[C@H]2O[C@H]2C[C@](C)(N)[C@H](O)[C@H](C)O2)Oc2ccc(cc2Cl)[C@H]1O` [VANCOMYCIN], the MIC was 1 µg/mL with Enterococcus faecalis [1]; 8 µg/mL with Staphylococcus aureus [2]; 8 µg/mL in the data set with Staphylococcus aureus [3]; > 128 µg/mL in the data set on Enterococcus faecium [4]; > 16 µg/mL in the data set on Enterococcus faecalis [5].

Broadly, the ED50 is the dose at which the effect has come halfway, by size or by number of responders. For the compound `CCCCCCCCCC(=O)N[C@@H](Cc1c[nH]c2ccccc12)C(=O)N[C@H](CC(N)=O)C(=O)N[C@@H](CC(=O)O)C(=O)N[C@@H]1C(=O)NCC(=O)N[C@@H](CCCN)C(=O)N[C@@H](CC(=O)O)C(=O)N[C@H](C)C(=O)N[C@@H](CC(=O)O)C(=O)NCC(=O)N[C@H](CO)C(=O)N[C@@H]([C@H](C)CC(=O)O)C(=O)N[C@@H](CC(=O)c2ccccc2N)C(=O)O[C@@H]1C`, the MIC came to 1 µg/mL in the data set on Staphylococcus aureus [6]; 4 µg/mL in the data set on Enterococcus faecalis [1]; 64 µg/mL with Staphylococcus aureus [7]; 8 µg/mL in the data set with Staphylococcus aureus [2]; 8 µg/mL in the data set with Staphylococcus aureus [3]; 4 µg/mL in the data set with Enterococcus faecalis [10]. Besides, the MIC in the data set with Enterococcus faecium [4] came out at 8 µg/mL; in the data set on Staphylococcus aureus [11], 128 µg/mL; in the data set on Staphylococcus aureus [12], 1 µg/mL; in the data set on Staphylococcus aureus [13], 4 µg/mL; with Staphylococcus aureus [14], 4 µg/mL (≈ 2.47 µM); in the data set with Staphylococcus aureus [17] it was 1 µg/mL. Further, the MIC in the data set on Enterococcus faecalis [5] was 8 µg/mL; in the data set on Staphylococcus aureus [19], 1 µg/mL; in the data set with Enterococcus faecium [20], 8 µg/mL; in the data set with Staphylococcus aureus [21], 2 µg/mL; in the data set on Staphylococcus aureus [23], 1 µg/mL; in the data set on Staphylococcus aureus [24] it was 2 µg/mL. Moreover, the result in the data set on Staphylococcus aureus [8] was Active. For the same compound, the results for the Ratio with Staphylococcus aureus [9] and with Staphylococcus aureus [16] were 32 and 16, respectively. Moreover, the Vd in data set [15] is 0.115 L/kg. Besides, the ED50 in the data set on Staphylococcus aureus [18] came out at 0.2 mg/kg. Besides, the Activity entry in the data set with Erythrocyte is listed as “Non-Toxic”. Also, the fold change (FC) in the data set with Staphylococcus aureus [22] amounted to 4.

Regarding `CCCCCCCCCNc1ccccc1C(=O)C[C@@H]1NC(=O)[C@H]([C@H](C)CC(=O)O)NC(=O)[C@@H](CO)NC(=O)CNC(=O)[C@H](CC(=O)O)NC(=O)[C@@H](C)NC(=O)[C@H](CC(=O)O)NC(=O)[C@H](CCCN)NC(=O)CNC(=O)[C@@H](NC(=O)[C@H](CC(=O)O)NC(=O)[C@@H](CC(N)=O)NC(=O)[C@H](Cc2c[nH]c3ccccc23)NC(=O)CCCCCCCCC)[C@@H](C)OC1=O` (single isomer, unassigned), the MIC amounted to 4 µg/mL with Staphylococcus aureus [2], 1 µg/mL with Enterococcus faecium [4], 1 µg/mL in the data set on Staphylococcus aureus [21] and 2 µg/mL in the data set on Staphylococcus aureus [24]. Also, the Ratio with Enterococcus faecium [25] and with Staphylococcus aureus [26] was 2 each time.

With `CCCCCCCCCCNc1ccccc1C(=O)C[C@@H]1NC(=O)[C@H]([C@H](C)CC(=O)O)NC(=O)[C@@H](CO)NC(=O)CNC(=O)[C@H](CC(=O)O)NC(=O)[C@@H](C)NC(=O)[C@H](CC(=O)O)NC(=O)[C@H](CCCN)NC(=O)CNC(=O)[C@@H](NC(=O)[C@H](CC(=O)O)NC(=O)[C@@H](CC(N)=O)NC(=O)[C@H](Cc2c[nH]c3ccccc23)NC(=O)CCCCCCCCC)[C@@H](C)OC1=O` (single isomer, unassigned), the MIC was 4 µg/mL in the data set with Staphylococcus aureus [2], 2 µg/mL in the data set with Enterococcus faecium [4], 2 µg/mL in the data set on Staphylococcus aureus [21] and 2 µg/mL in the data set with Staphylococcus aureus [24]. Moreover, the Ratio in the data set on Enterococcus faecium [25] and in the data set with Staphylococcus aureus [26] was 2 each time.

Take `CCCCCCCCCC(=O)N[C@@H](Cc1c[nH]c2ccccc12)C(=O)N[C@H](CC(N)=O)C(=O)N[C@@H](CC(=O)O)C(=O)N[C@@H]1C(=O)NCC(=O)N[C@@H](CCCN)C(=O)N[C@@H](CC(=O)O)C(=O)N[C@H](C)C(=O)N[C@@H](CC(=O)O)C(=O)NCC(=O)N[C@H](CO)C(=O)N[C@@H]([C@H](C)CC(=O)O)C(=O)N[C@@H](CC(=O)c2ccccc2NCCCCCCCC)C(=O)O[C@@H]1C` (single isomer, unassigned): the minimal inhibitory concentration (MIC) in the data set with Staphylococcus aureus [2] came out at 4 µg/mL; in the data set on Enterococcus faecium [4] it was 0.5 µg/mL; in the data set on Staphylococcus aureus [21] it was 1 µg/mL; in the data set on Staphylococcus aureus [24] it was 1 µg/mL. In addition, the Ratio in the data set with Enterococcus faecium [25] and in the data set with Staphylococcus aureus [26] was 2 each time.

As to `CCCCCCCCCC(=O)N[C@@H](Cc1c[nH]c2ccccc12)C(=O)N[C@H](CC(N)=O)C(=O)N[C@@H](CC(=O)O)C(=O)N[C@@H]1C(=O)NCC(=O)N[C@@H](CCCN)C(=O)N[C@@H](CC(=O)O)C(=O)N[C@H](C)C(=O)N[C@@H](CC(=O)O)C(=O)NCC(=O)N[C@H](CO)C(=O)N[C@@H]([C@H](C)CC(=O)O)C(=O)N[C@@H](CC(=O)c2ccccc2NCCC)C(=O)O[C@@H]1C`, the MIC in the data set with Staphylococcus aureus [2] stood at 4 µg/mL; with Enterococcus faecium [4], 1 µg/mL; in the data set with Staphylococcus aureus [21] it was 0.5 µg/mL; in the data set with Staphylococcus aureus [24] it was 1 µg/mL. Further, the Ratio with Enterococcus faecium [25] and with Staphylococcus aureus [26] was 2 throughout.
